From publication PMC11435058, “Synthesis of New Thiazole-Privileged Chalcones as Tubulin Polymerization Inhibitors with Potential Anticancer Activities” (Pharmaceuticals, 2024)

Tests used:
[1] = test system: ACHN; assay: NCI-60 anticancer screen (SRB; single dose and five doses); details: Homo sapiens
[2] = test system: HT29; assay: as above; details: Homo sapiens
[3] = test system: NCI-H460; assay: as above; details: Homo sapiens
[4] = test system: COLO 205; assay: as above; details: Homo sapiens
[5] = test system: A549/ATCC; assay: as above; details: Homo sapiens
[6] = test system: DU-145; assay: as above; details: Homo sapiens
[7] = test system: T-47D; assay: as above; details: Homo sapiens, T47D
[8] = test system: OVCAR-4; assay: as above; details: Homo sapiens
[9] = test system: CCRF-CEM; assay: NCI-60 anticancer screen (SRB; single dose 10 μM and five doses); details: Homo sapiens
[10] = test system: NCI-H23; assay: NCI-60 anticancer screen (SRB; single dose and five doses); details: Homo sapiens
[11] = test system: RPMI-8226; assay: as above; details: Homo sapiens
[12] = test system: SN12C; assay: as above; details: Homo sapiens
[13] = test system: SK-MEL-28; assay: as above; details: Homo sapiens
[14] = test system: HOP-62; assay: as above; details: Homo sapiens
[15] = test system: HOP-92; assay: as above; details: Homo sapiens
[16] = test system: A498; assay: as above; details: Homo sapiens
[17] = test system: HCC-2998; assay: as above; details: Homo sapiens, HCC 2998, 48 h, read-out: Growth Percentage
[18] = test system: TK-10; assay: as above; details: Homo sapiens
[19] = test system: HCT-15; assay: as above; details: Homo sapiens
[20] = test system: SR; assay: as above; details: Homo sapiens
[21] = test system: KM12; assay: as above; details: Homo sapiens
[22] = test system: SNB-75; assay: as above
[23] = test system: PC-3; assay: as above; details: Homo sapiens
[24] = test system: EKVX; assay: as above; details: Homo sapiens
[25] = test system: 786-0; assay: as above; details: Homo sapiens
[26] = test system: K-562; assay: as above; details: Homo sapiens
[27] = test system: LOX IMVI; assay: as above; details: Homo sapiens
[28] = test system: NCI/ADR-RES; assay: as above; details: Homo sapiens
[29] = test system: BT-549; assay: as above; details: Homo sapiens
[30] = 48 h, read-out: Growth Percentage

With Cc1[nH]c(=S)sc1C(=O)/C=C/c1ccc(Cl)cc1 [2f, (E)-3-(4-Chlorophenyl)-1-(4-Methyl-2-Thioxo-2,3-Dihydrothiazol-5-yl)Prop-2-En-1-One] the GI50 [1] was 13.8 µM, the IC50 [1] was 24 µM and the activity at 10 µM [1, 30] was 34.6%. For the same compound, the CC50 ([1]; read-out: LC50) was 51.3 µM, the IC (TGI) ([1]; read-out: TGI) was 26.9 µM and the GI50 ([2]; HT-29) was 6.76 µM. The IC50 ([2]; HT-29) was 9.55 µM, the activity at 10 µM ([2]; HT-29, 48 h, read-out: Growth Percentage) was 31.2% and the CC50 ([2]; HT-29, read-out: LC50) was 53.7 µM. It also gave an IC (TGI) ([2]; HT-29, read-out: TGI) of 20.9 µM, a GI50 ([3]; NCI-H460) of 12 µM and an IC50 ([3]; NCI-H460) of 19.1 µM. It also gave an activity at 10 µM ([3]; NCI-H460, 48 h, read-out: Growth Percentage) of 82.6%, a CC50 ([3]; NCI-H460, read-out: LC50) of 69.2 µM and an IC (TGI) ([3]; NCI-H460, read-out: TGI) of 28.8 µM. For the same compound, the GI50 ([4]; COLO 205) was 19.1 µM, the IC50 ([4]; COLO 205) was 33.9 µM and the activity at 10 µM ([4]; COLO 205, 48 h, read-out: Growth Percentage) was 78.2%. For the same compound, the CC50 ([4]; COLO 205, read-out: LC50) was 74.1 µM, the IC (TGI) ([4]; COLO 205, read-out: TGI) was 38 µM and the GI50 ([5]; A549) was 10.7 µM. It also gave an IC50 ([5]; A549) of 16.2 µM, an activity at 10 µM ([5]; A549, 48 h, read-out: Growth Percentage) of 61.1% and a CC50 ([5]; A549, read-out: LC50) of 52.5 µM. For the same compound, the IC (TGI) ([5]; A549, read-out: TGI) was 24 µM, the GI50 ([6]; DU-145) was 4.9 µM and the IC50 ([6]; DU-145) was 8.91 µM. The activity at 10 µM ([6]; DU-145, 48 h, read-out: Growth Percentage) was 7.29%, the CC50 ([6]; DU-145, read-out: LC50) was 42.7 µM and the IC (TGI) ([6]; DU-145, read-out: TGI) was 17.4 µM. It also gave a GI50 [7] of 3.47 µM, an IC50 [7] of 14.1 µM and an activity at 10 µM [7, 30] of 1.38%. The CC50 ([7]; read-out: LC50) was 81.3 µM, the IC (TGI) ([7]; read-out: TGI) was 19.1 µM and the GI50 ([8]; OVCAR-4) was 13.8 µM. The IC50 ([8]; OVCAR-4) was 25.1 µM, the activity at 10 µM ([8]; OVCAR-4, 48 h, read-out: Growth Percentage) was 76.3% and the CC50 ([8]; OVCAR-4, read-out: LC50) was 55 µM. For the same compound, the IC (TGI) ([8]; OVCAR-4, read-out: TGI) was 27.5 µM, the GI50 [9] was 2.88 µM and the activity at 10 µM [9, 30] was 3.18%. It also gave an IC50 ([9]; five doses) of 2.88 µM, an IC50 ([9]; five-dose, Leukemia CCRF-CEM) of 3.98 µM and an IC (TGI) ([9]; read-out: TGI) of 11.2 µM. It also gave a GI50 ([10]; NCI-H23) of 14.8 µM, an IC50 ([10]; NCI-H23) of 26.9 µM and an activity at 10 µM ([10]; NCI-H23, 48 h, read-out: Growth Percentage) of 36.4%. For the same compound, the CC50 ([10]; NCI-H23, read-out: LC50) was 58.9 µM, the IC (TGI) ([10]; NCI-H23, read-out: TGI) was 29.5 µM and the GI50 ([11]; RPMI-8226) was 2.4 µM. For the same compound, the activity at 10 µM ([11]; RPMI-8226, 48 h, read-out: Growth Percentage) was 13.8%, the IC50 ([11]; RPMI-8226, RPMI-8226, five doses) was 2.4 µM and the IC50 ([11]; RPMI-8226, five-dose, Leukemia RPMI-8226) was 4.68 µM. The CC50 ([11]; RPMI-8226, read-out: LC50) was over 100 µM, the IC (TGI) ([11]; RPMI-8226, read-out: TGI) was 8.32 µM and the GI50 [12] was 4.9 µM. For the same compound, the IC50 [12] was 10.7 µM, the activity at 10 µM [12, 30] was 4.62% and the CC50 ([12]; read-out: LC50) was 43.6 µM. The IC (TGI) ([12]; read-out: TGI) was 18.2 µM, the GI50 ([13]; SK-MEL-28) was 14.5 µM and the IC50 ([13]; SK-MEL-28) was 26.3 µM. It also gave an activity at 10 µM ([13]; SK-MEL-28, 48 h, read-out: Growth Percentage) of 45.7%, a CC50 ([13]; SK-MEL-28, read-out: LC50) of 53.7 µM and an IC (TGI) ([13]; SK-MEL-28, read-out: TGI) of 28.2 µM. The GI50 ([14]; HOP-62) was 5.37 µM, the IC50 ([14]; HOP-62) was 12 µM and the activity at 10 µM ([14]; HOP-62, 48 h, read-out: Growth Percentage) was -2.73%. The CC50 ([14]; HOP-62, read-out: LC50) was 72.4 µM, the IC (TGI) ([14]; HOP-62, read-out: TGI) was 22.9 µM and the GI50 ([15]; HOP-92) was 11.5 µM. For the same compound, the IC50 ([15]; HOP-92) was 30.2 µM, the activity at 10 µM ([15]; HOP-92, 48 h, read-out: Growth Percentage) was 34.8% and the CC50 ([15]; HOP-92, read-out: LC50) was 63.1 µM. It also gave an IC (TGI) ([15]; HOP-92, read-out: TGI) of 26.9 µM, a GI50 ([16]; A498) of 15.8 µM and an IC50 ([16]; A498) of 30.9 µM. For the same compound, the activity at 10 µM ([16]; A498, 48 h, read-out: Growth Percentage, A498, dose of 10 μM) was 106%, the CC50 ([16]; A498, read-out: LC50) was 56.2 µM and the IC (TGI) ([16]; A498, read-out: TGI) was 29.5 µM. The activity at 10 µM [17] was -21.3%, the GI50 ([18]; TK-10) was 15.1 µM and the IC50 ([18]; TK-10) was 28.2 µM. For the same compound, the activity at 10 µM ([18]; TK-10, 48 h, read-out: Growth Percentage) was 40.4%, the CC50 ([18]; TK-10, read-out: LC50) was 55 µM and the IC (TGI) ([18]; TK-10, read-out: TGI) was 28.8 µM. For the same compound, the GI50 ([19]; HCT-15) was 4.07 µM, the IC50 ([19]; HCT-15) was 5.37 µM and the activity at 10 µM ([19]; HCT-15, 48 h, read-out: Growth Percentage) was -19.8%. The CC50 ([19]; HCT-15, read-out: LC50) was 49 µM, the IC (TGI) ([19]; HCT-15, read-out: TGI) was 16.6 µM and the GI50 [20] was 3.55 µM. It also gave an IC50 [20] of 5.37 µM, a CC50 ([20]; read-out: LC50) of over 100 µM and an IC (TGI) ([20]; read-out: TGI) of 56.2 µM. It also gave a GI50 ([21]; KM12) of 4.17 µM, an IC50 ([21]; KM12) of 8.13 µM and an activity at 10 µM ([21]; KM12, 48 h, read-out: Growth Percentage) of 6.77%. It also gave a CC50 ([21]; KM12, read-out: LC50) of 45.7 µM, an IC (TGI) ([21]; KM12, read-out: TGI) of 16.6 µM and a GI50 ([22]; Homo sapiens, SNB-75) of 2.19 µM. The IC50 ([22]; Homo sapiens, SNB-75) was 8.51 µM, the CC50 ([22]; Homo sapiens, SNB-75, read-out: LC50) was 28.8 µM and the TGI ([22]; five-dose, CNS Cancer SNB-75) was 6.76 µM. For the same compound, the GI50 ([23]; PC-3) was 5.37 µM, the IC50 ([23]; PC-3) was 9.77 µM and the CC50 ([23]; PC-3, read-out: LC50) was 81.3 µM. For the same compound, the IC (TGI) ([23]; PC-3, read-out: TGI) was 23.4 µM, the GI50 [24] was 12.9 µM and the IC50 [24] was 24 µM. For the same compound, the activity at 10 µM [24, 30] was 41%, the CC50 ([24]; read-out: LC50) was 52.5 µM and the IC (TGI) ([24]; read-out: TGI) was 26.3 µM. For the same compound, the GI50 ([25]; 786-0) was 4.68 µM, the IC50 ([25]; 786-0) was 7.76 µM and the activity at 10 µM ([25]; 786-0, 48 h, read-out: Growth Percentage) was 16.6%. The CC50 ([25]; 786-0, read-out: LC50) was 58.9 µM, the IC (TGI) ([25]; 786-0, read-out: TGI) was 20.4 µM and the GI50 ([26]; K562) was 3.89 µM. For the same compound, the IC50 ([26]; K562) was 4.68 µM, the activity at 10 µM ([26]; K562, 48 h, read-out: Growth Percentage) was 7.94% and the CC50 ([26]; K562, read-out: LC50) was over 100 µM. For the same compound, the IC (TGI) ([26]; K562, read-out: TGI) was over 100 µM, the GI50 [27] was 3.39 µM and the IC50 [27] was 4.47 µM. It also gave an activity at 10 µM [27, 30] of -48.1%, a CC50 ([27]; read-out: LC50) of 38 µM and an IC (TGI) ([27]; read-out: TGI) of 12 µM. The GI50 [28] was 3.72 µM, the IC50 [28] was 7.08 µM and the activity at 10 µM [28, 30] was -8.39%. The CC50 ([28]; read-out: LC50) was 77.6 µM, the IC (TGI) ([28]; read-out: TGI) was 17.4 µM and the GI50 ([29]; BT-549) was 5.75 µM. It also gave an IC50 ([29]; BT-549) of 20.9 µM, an activity at 10 µM ([29]; BT-549, 48 h, read-out: Growth Percentage) of -14.4% and an IC (TGI) ([29]; BT-549, read-out: TGI) of 20.4 µM.
